Measured values reported in publication PMC7811009, “Oxytocin modulates local topography of human functional connectome in healthy men at rest” (Communications Biology, 2021).
Where two headings read alike, the source gives them in different places.

Tests used:
[1] = Plasma oxytocin concentration by radioimmunoassay after 40 IU intranasal (spray or nebuliser) or 10 IU intravenous oxytocin; type: in vivo, human; settings: for level at 0.95 h: male, human, 57 minutes post-administration (from last treatment offset), read-out: Concentration of plasmatic oxytocin
Source text: We employed a double-blind, placebo-controlled, triple-dummy, crossover design. Participants visited our centre for 4 experimental sessions spaced 8.90 days apart on average (SD = 5.65, range: 5–28 days). In each session, participants received treatment via all three administration routes, in one of two fixed sequences: either nebuliser/intravenous infusion/standard nasal spray, or standard nasal spray/intravenous infusion/nebuliser, according to the treatment administration scheme presented in Fig. 8 (upper panel). In three out of four sessions only one route of administration contained the active drug; in the fourth session, all routes delivered placebo or saline. Participants were randomly allocated to a treatment order (i.e. a specific plan regarding which route delivered the active drug in each experimental session) that was determined using a Latin square design. Unbeknown to the participants, the first treatment administration method in each session always contained placebo (see Fig. 8, upper panel), while intranasal (spray or nebuliser) oxytocin was only delivered with the third treatment administration. This protocol maintained double-blinding while avoiding the potential washing-out of intranasally deposited oxytocin (as might have been the case if oxytocin had been administered at the first treatment administration point and placebo at the third administration point). All sessions were conducted during the morning to minimise potential circadian variability in resting brain activity[79] or oxytocin levels.
For the intranasal administrations, participants self-administered a nominal dose of 40 IU oxytocin (Syntocinon; 40 IU/ml; Novartis, Basel, Switzerland), one of the highest clinically applicable doses[81] that would insure that lack of effects on the brain are unlikely to result from under-dosing. We have shown that 40 IU delivered with a standard nasal spray induce robust rCBF changes in two different cohorts of healthy men using between-[12] and within-subjects[11] designs. Work from others have also reported this dose to modulate resting functional connectivity[19],[82]. For the intranasal administration, we used specially manufactured placebo that contained the same excipients as Syntocinon except for oxytocin. Participants self-administered intranasal oxytocin or placebo with the nasal spray or nebuliser following under the supervision of the lead experimenter who ensured the correct application of the devices. Additionally, all participants had been trained during the screening visit in the correct administration procedures.
Participants followed our standard in-house protocol that we have used consistently across all of our studies and is consistent with the guidelines outlined by Guastella et al. (2013)[83]. […] Participants blocked opposite nostril while administering each puff, and each puff was followed by an immediate, brief, sharp, snort.
Participants self-administered 40 IU oxytocin (Syntocinon) or placebo, by operating the SINUS nebulizer for 3 min in each nostril (6 min in total), according to instructions. The correct application of the device was confirmed by determining gravimetrically the administered volume. Participants were instructed to breathe using only their mouth and to keep a constant breathing rate with their soft palate closed, to minimize delivery to the lungs. Previous studies using this nebuliser[34] have shown up to 9.0% (±1.9%) of the total administered dose to be delivered to the olfactory region, 15.7% (±2.4%) to the upper nose.
For the intravenous administration, we delivered 10 IU oxytocin (Syntocinon injection formulation, 10 IU/ml, Alliance, UK) or saline via slow infusion over 10 min (1IU/min). A 50-ml syringe was loaded with either 32 ml of 0.9% sodium chloride (placebo) or 30 ml of 0.9% sodium chloride with […] of Syntocinon (10 IU/ml). […]

[2] = test system: human functional connectome at rest; test: Resting-state BOLD-fMRI: network edges (microscale), FDR and Network Based Statistics; type: in vivo
Source text: We used the CONN functional connectivity toolbox[97] to generate brain-wide functional connectivity matrices for each subject/session. […] The default atlas of the CONN toolbox includes 132 non-overlapping ROIs spanning cortical and subcortical areas and the cerebellum using a combination of the cortical and subcortical areas from the FSL Harvard-Oxford atlas and of the cerebellar areas of the Automatic Anatomical Labelling atlas (Supplementary data 1 for a detailed description). […] Finally, we normalized our correlation measures to z-scores using the Fisher’s r-z transform per subject/session.
We did so by examining treatment-related changes in mean connectivity and global efficiency of the whole-brain network (macroscale), graph properties of regional connectivity at the node level (mesoscale) and individual connections between pairs of nodes (microscale). These analyses were performed using repeated measures one-way analysis of variance, implemented in Matlab 2016. When a significant effect was found, we followed up with post-hoc paired t-tests between each pair of the four treatment conditions, using FDR correction for multiple testing.
Microscale. We performed two different analyses to investigate treatment-related changes on each individual edge of the connectivity matrices. […]

CC[C@H](C)[C@@H]1NC(=O)[C@H](Cc2ccc(O)cc2)NC(=O)[C@@H](N)CSSC[C@@H](C(=O)N2CCC[C@H]2C(=O)N[C@@H](CC(C)C)C(=O)NCC(N)=O)NC(=O)[C@H](CC(N)=O)NC(=O)[C@H](CCC(N)=O)NC1=O [oxytocin]
Plasmatic oxytocin concentrations at post-administration, intravenous versus other conditions ([1]; 57 min post-administration, all pTukey < 0.010): higher in the intravenous condition than in all the other three treatment conditions
Plasma oxytocin concentrations, spray versus nebuliser ([1]; 57 min post-administration, pTukey = 1.000): did not differ
Plasma oxytocin concentration at 57 min post-administration compared to baseline ([1]; Intranasal (spray, nebuliser) and intravenous administrations, all pTukey < 0.010): increased plasma oxytocin concentration
Concentration of plasmatic oxytocin ([1]; Nebuliser (40 IU intranasal, PARI SINUS nebuliser), 57 minutes post-administration, plasma, radioimmunoassay after extraction, mean, n = 16 healthy men): 7.207 pg/mL
level at 0.95 h ([1]; inhaled or intranasal, Spray (40 IU intranasal, standard nasal spray), plasma, radioimmunoassay after extraction, mean, n = 16 healthy men): 7.03 pg/mL
level at 0.95 h ([1]; Intravenous (10 IU infusion over 10 min, 1IU/min), plasma, radioimmunoassay after extraction, mean, n = 16 healthy men): 16.4 pg/mL
Connectivity of individual edges across the four treatment conditions ([2]; FDR correction for the number of edges): did not find any individual edge where the four treatment conditions differed in connectivity
Connectivity of subnetworks across the four treatment conditions ([2]; NBS, irrespective of the primary threshold used): did not identify any subnetwork where the four treatment conditions differed on connectivity
